The results in this text go back to US20070010670A1, “Nitrogen-containing fused ring compounds and use thereof” (Japan Tobacco Inc., priority 2004, published 2007).

SMILES strings stand for the structures.

The target of this assay is T1, CYP2C9 (Homo sapiens, UniProt P11712).
T1 construct: Human liver microsome (20 mg protein/mL, 5 μL, Xenotech LLC, purchased from Lenexa KS); tissue Xenotech LLC; host or cells: human liver microsome
T1 sequence (P11712 whole entry): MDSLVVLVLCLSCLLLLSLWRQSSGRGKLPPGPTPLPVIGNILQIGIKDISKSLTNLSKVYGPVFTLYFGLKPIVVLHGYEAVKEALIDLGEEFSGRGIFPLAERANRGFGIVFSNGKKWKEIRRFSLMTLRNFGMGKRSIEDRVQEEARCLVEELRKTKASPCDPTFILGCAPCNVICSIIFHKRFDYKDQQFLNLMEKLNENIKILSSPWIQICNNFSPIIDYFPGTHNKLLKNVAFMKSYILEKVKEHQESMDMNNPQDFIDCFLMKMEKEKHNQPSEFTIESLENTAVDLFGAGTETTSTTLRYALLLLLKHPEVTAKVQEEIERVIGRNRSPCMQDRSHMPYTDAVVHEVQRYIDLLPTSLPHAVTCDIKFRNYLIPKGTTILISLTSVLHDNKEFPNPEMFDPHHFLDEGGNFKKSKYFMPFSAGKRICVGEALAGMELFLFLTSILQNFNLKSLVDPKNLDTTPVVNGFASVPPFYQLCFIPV
Briefly: CYP inhibitory test using human liver microsome. The class given is in vitro ADME. The settings on record: model substrate diclofenac, 37° C. 10 min, read-out: CYP2C9 inhibition IC50. The method, then:
Human liver microsome (20 mg protein/mL, 5 μL, Xenotech LLC, purchased from Lenexa KS) was suspended in 100 mM potassium phosphate buffer (70 μL, pH 7.4), mixed with a solution (0.5 μL) of the Example compound dissolved in DMSO and preincubated at 37° C. for 5 min. NADPH producing system coenzyme solution (β-nicotinamide adenine dinucleotide phosphate: 5.2 mM, D-glucose-6-phosphate: 13.2 mM, magnesium chloride: 13.2 mM, glucose-6-phosphate dehydrogenase: 1.8 U/mL) 25 μL, and a model substrate (CYP3A4: midazolam 1 mM, CYP2D6: bufuralol 1 mM, CYP2C9: diclofenac 2 mM) 0.5 μL dissolved in DMSO were added to start the reaction. After incubation at 37° C. for 10 min., acetonitrile (200 μL) containing an internal standard substance (propranolol 1 μM) was added and the mixture was centrifuged (room temperature, 3000 rpm, 20 min). The amount of the metabolite produced from each model substrate in the supernatant was measured by high performance liquid chromatography/mass spectrometry (LC/MS/MS) and each CYP enzyme activity was determined. The concentration showing 50% inhibition (IC50) was calculated relative to the enzyme activity without addition of Example compound (DMSO 0.5 μL added) as 100%.
As to `O=C(c1ccc(O)c(Cl)c1)N1CCOc2ccccc21` [Example 1, (3-chloro-4-hydroxyphenyl)-(2,3-dihydrobenzo[1,4]oxazin-4-yl)-methanone], the IC50 is over 50 µM.

Turning to `O=C(c1ccc(O)c(Br)c1)N1CCOc2ccccc21` [Example 2, (3-bromo-4-hydroxyphenyl)-(2,3-dihydrobenzo[1,4]oxazin-4-yl)-methanone], the IC50 turned out to be 37 µM.

As for `O=C(c1cc(Cl)c(O)c(Cl)c1)N1CCOc2ccccc21` [Example 3, (3,5-dichloro-4-hydroxyphenyl)-(2,3-dihydrobenzo[1,4]oxazin-4-yl)-methanone], the 50% inhibitory concentration (IC50) was 27 µM.

For the compound `O=C(c1cc(Br)c(O)c(Br)c1)N1CCOc2ccccc21` [Example 4, (3,5-dibromo-4-hydroxyphenyl)-(2,3-dihydrobenzo[1,4]oxazin-4-yl)-methanone], the IC50 is 9 µM.

With `O=C(c1cc(I)c(O)c(I)c1)N1CCOc2ccccc21` [Example 5, (2,3-dihydrobenzo[1,4]oxazin-4-yl)-(4-hydroxy-3,5-diiodophenyl)-methanone], the IC50 came to 2 µM.

On to `O=C(c1cc(F)c(O)c(F)c1)N1CCOc2ccccc21` [Example 6, (3,5-difluoro-4-hydroxyphenyl)-(2,3-dihydrobenzo[1,4]oxazin-4-yl)-methanone], for which the IC50 was over 50 µM.

With `Cc1cc(C(=O)N2CCOc3ccccc32)cc(C)c1O` [Example 7, (2,3-dihydrobenzo[1,4]oxazin-4-yl)-(4-hydroxy-3,5-dimethylphenyl)-methanone], the half-maximal inhibitory concentration (IC50) amounted to 4 µM.

Consider `O=C(c1cc(Cl)c(O)c(Cl)c1)N1CCSc2ccccc21` [Example 8, (3,5-dichloro-4-hydroxyphenyl)-(2,3-dihydrobenzo[1,4]thiazin-4-yl)-methanone], for which the concentration for half-maximal inhibition (IC50) was 19 µM.

With `O=C(c1cc(Cl)c(O)c(Cl)c1)N1CCS(=O)(=O)c2ccccc21` [Example 10, (3,5-dichloro-4-hydroxyphenyl)-(1,1-dioxo-2,3-dihydro-1H-1λ^6-benzo[1,4]thiazin-4-yl)-methanone], the IC50 is over 50 µM.

With `Oc1c(Cl)cc(C(=S)N2CCOc3ccccc32)cc1Cl` [Example 11, (3,5-dichloro-4-hydroxyphenyl)-(2,3-dihydrobenzo[1,4]oxazin-4-yl)-methanethione], the IC50 is 12 µM.

Consider `Cc1ccc2c(c1)N(C(=O)c1cc(Cl)c(O)c(Cl)c1)CCO2` [Example 12, (3,5-dichloro-4-hydroxyphenyl)-(6-methyl-2,3-dihydrobenzo[1,4]oxazin-4-yl)-methanone], for which the concentration for half-maximal inhibition (IC50) was 22 µM.

Take `Cc1ccc2c(c1)OCCN2C(=O)c1cc(Cl)c(O)c(Cl)c1` [Example 13, (3,5-dichloro-4-hydroxyphenyl)-(7-methyl-2,3-dihydrobenzo[1,4]oxazin-4-yl)-methanone]: the IC50 worked out at 18 µM.

As to `Cc1cccc2c1N(C(=O)c1cc(Cl)c(O)c(Cl)c1)CCO2` [Example 14, (3,5-dichloro-4-hydroxyphenyl)-(5-methyl-2,3-dihydrobenzo[1,4]oxazin-4-yl)-methanone], the IC50 stood at 16 µM.

Consider `Cc1cccc2c1OCCN2C(=O)c1cc(Cl)c(O)c(Cl)c1` [Example 15, (3,5-dichloro-4-hydroxyphenyl)-(8-methyl-2,3-dihydrobenzo[1,4]oxazin-4-yl)-methanone], for which the IC50 was 6 µM.

As to `O=C(c1cc(Cl)c(O)c(Cl)c1)N1CCOc2ccc3ccccc3c21` [Example 16, (3,5-dichloro-4-hydroxyphenyl)-(2,3-dihydronaphtho[2,1-b][1,4]oxazin-1-yl)-methanone], the IC50 turned out to be 10 µM.

As for `COc1ccc2c(c1)N(C(=O)c1cc(Cl)c(O)c(Cl)c1)CCO2` [Example 17, (3,5-dichloro-4-hydroxyphenyl)-(6-methoxy-2,3-dihydrobenzo[1,4]oxazin-4-yl)-methanone], the 50% inhibitory concentration (IC50) stood at 33 µM.

With `COc1ccc2c(c1)OCCN2C(=O)c1cc(Cl)c(O)c(Cl)c1` [Example 18, (3,5-dichloro-4-hydroxyphenyl)-(7-methoxy-2,3-dihydrobenzo[1,4]oxazin-4-yl)-methanone], the 50% inhibitory concentration (IC50) is 9 µM.

For `O=C(c1cc(Cl)c(O)c(Cl)c1)N1CCOc2ccc(O)cc21` [Example 19, (3,5-dichloro-4-hydroxyphenyl)-(6-hydroxy-2,3-dihydrobenzo[1,4]oxazin-4-yl)-methanone], the IC50 was over 50 µM.

On to `O=C(c1cc(Cl)c(O)c(Cl)c1)N1CCOc2cc(O)ccc21` [Example 20, (3,5-dichloro-4-hydroxyphenyl)-(7-hydroxy-2,3-dihydrobenzo[1,4]oxazin-4-yl)-methanone], for which the concentration for half-maximal inhibition (IC50) came to 13 µM.

In the case of `CCN(CC)S(=O)(=O)c1ccc2c(c1)N(C(=O)c1cc(Cl)c(O)c(Cl)c1)CCO2` [Example 21, 4-(3,5-dichloro-4-hydroxybenzoyl)-3,4-dihydro-2H-benzo[1,4]oxazine-6-sulfonic acid diethylamide], the IC50 amounted to 17 µM.

`O=S(=O)(c1cc(Cl)c(O)c(Cl)c1)N1CCOc2ccccc21` [Example 22, 2,6-dichloro-4-(2,3-dihydrobenzo[1,4]oxazine-4-sulfonyl)phenol]: the IC50 worked out at 1 µM.

Regarding `CC(C)(C)c1ccc2c(c1)N(C(=O)c1cc(Cl)c(O)c(Cl)c1)CCO2` [Example 23, (6-tert-butyl-2,3-dihydrobenzo[1,4]oxazin-4-yl)-(3,5-dichloro-4-hydroxyphenyl)-methanone], the IC50 was 19 µM.

Regarding `O=C1COc2ccccc2N1C(=O)c1cc(Cl)c(O)c(Cl)c1` [Example 24, 4-(3,5-dichloro-4-hydroxybenzoyl)-4H-benzo[1,4]oxazin-3-one], the IC50 is over 50 µM.

In the case of `NS(=O)(=O)c1ccc2c(c1)N(C(=O)c1cc(Cl)c(O)c(Cl)c1)CCO2` [Example 25, 4-(3,5-dichloro-4-hydroxybenzoyl)-3,4-dihydro-2H-benzo[1,4]oxazine-6-sulfonamide], the IC50 is over 50 µM.

As for `O=C(c1cc(Cl)c(O)c(Cl)c1)N1CCCc2ccccc21` [Example 26, (3,5-dichloro-4-hydroxyphenyl)-(3,4-dihydro-2H-quinolin-1-yl)-methanone], the IC50 came out at 13 µM.

As for `O=C(c1cc(Cl)c(O)c(Cl)c1)N1CCCCc2ccccc21` [Example 27, (3,5-dichloro-4-hydroxyphenyl)-(2,3,4,5-tetrahydrobenzo[b]azepin-1-yl)-methanone], the IC50 was found to be 21 µM.

In the case of `O=C(c1cnc(O)c(Cl)c1)N1CCOc2ccccc21` [Example 29, (5-chloro-6-hydroxypyridin-3-yl)-(2,3-dihydrobenzo[1,4]oxazin-4-yl)-methanone], the 50% inhibitory concentration (IC50) was over 50 µM.

`O=C(c1cc([N+](=O)[O-])c(O)c([N+](=O)[O-])c1)N1CCOc2ccccc21` [Example 30, (2,3-dihydrobenzo[1,4]oxazin-4-yl)-(4-hydroxy-3,5-dinitrophenyl)-methanone]: the half-inhibitory concentration (IC50) was over 50 µM.

Consider `O=C(c1cc(Cl)c(O)c([N+](=O)[O-])c1)N1CCOc2ccccc21` [Example 31, (3-chloro-4-hydroxy-5-nitrophenyl)-(2,3-dihydrobenzo[1,4]oxazin-4-yl)-methanone], for which the concentration for half-maximal inhibition (IC50) came out at 20 µM.

Take `CC(C)c1cccc2c1OC(C(C)C)CN2C(=O)c1cc(Cl)c(O)c(Cl)c1` (stereo not drawn) [Example 32, (3,5-dichloro-4-hydroxyphenyl)-(2,8-diisopropyl-2,3-dihydrobenzo[1,4]oxazin-4-yl)-methanone]: the 50% inhibitory concentration (IC50) stood at 10 µM.
